Results reported in ChEMBL document CHEMBL2157963, “Synthesis and in vitro antitumour screening of 2-(β-D-xylofuranosyl)thiazole-4-carboxamide and two novel tiazofurin analogues with substituted tetrahydrofurodioxol moiety as a sugar mimic” (Bioorg Med Chem Lett, 2012).
The source made the active and inactive calls. The rule behind the calls is not given here.

Key:
HeLa [1] = assay: Cytotoxicity against human HeLa cells after 72 hrs by MTT assay; format: functional, cell-based
HT-29 = assay: Cytotoxicity against human HT-29 cells; format: functional, cell-based
MRC5 = assay: Cytotoxicity against human MRC5 cells after 72 hrs by MTT assay; format: cell-based; conditions: MRC5, 72 h
Jurkat = assay: Cytotoxicity against human Jurkat cells after 72 hrs by MTT assay; format: functional, cell-based
MDA-MB-231 = assay: Cytotoxicity against human MDA-MB-231 cells; format: functional, cell-based
HL-60 [2] = assay: Cytotoxicity against human HL60 cells after 72 hrs by MTT assay; format: functional, cell-based; conditions: HL-60, 72 h
K562 [3] = assay: Cytotoxicity against human K562 cells after 72 hrs by MTT assay; format: functional, cell-based; conditions: K562, 72 h
Raji = assay: Cytotoxicity against human Raji cells after 72 hrs by MTT assay; format: functional, cell-based
MCF7 = assay: Cytotoxicity against human MCF7 cells; format: functional, cell-based
HeLa [4] = assay: Ratio of tiazofurin IC50 to compound IC50 for human HeLa cells; format: functional
HL-60 [5] = assay: Ratio of tiazofurin IC50 to compound IC50 for human HL60 cells; format: functional
K562 [6] = assay: Induction of apoptosis in human K562 cells assessed as apoptotic cells at IC50 concentration after 72 hrs by AnnexinV staining-based flow cytometric analysis relative to tiazofurin; format: functional
K562 [7] = assay: Cytotoxicity against human K562 cells after 72 hrs by DET assay; format: functional, cell-based; conditions: K562, 72 h
K562 [8] = assay: Cytotoxicity against human K562 cells after 72 hrs by SRB assay; format: functional, cell-based; conditions: K562, 72 h
K562 [9] = assay: Induction of apoptosis in human K562 cells at IC50 concentration after 24 hrs by AnnexinV staining-based flow cytometric analysis; format: functional, cell-based
K562 [10] = assay: Ratio of tiazofurin IC50 to compound IC50 for human K562 cells; format: functional

Row | Compound | IC50 (HeLa [1]) [µM] | IC50 (HT-29) [µM] | IC50 (MRC5) [µM] | IC50 (Jurkat) [µM] | IC50 (MDA-MB-231) [µM] | IC50 (HL-60 [2]) [µM] | IC50 (K562 [3]) [µM] | IC50 (Raji) [µM] | IC50 (MCF7) [µM] | Ratio IC50 (HeLa [4]) | Ratio IC50 (HL-60 [5]) | fold change (FC) (K562 [6]) | IC50 (K562 [7]) [µM] | Activity (HT-29) | IC50 (K562 [8]) [µM] | Activity (MDA-MB-231) | Activity (K562 [9]) | Activity (MCF7) | Ratio IC50 (K562 [10])
1 | NC(=O)c1csc([C@@H]2O[C@H](CO)[C@@H](O)[C@H]2O)n1 [TIAZOFURIN] | 3.82 | 0.26 | 0.36 | 0.04 | 0.26 | 0.19 | 2.09 | 5.28 | 0.26 | – | – | – | – | – | – | – | – | – | –
2 | C[C@@]1(c2nc(C(N)=O)cs2)O[C@H]2O[C@H](CO)[C@H](O)[C@H]2O1 | 0.06 | – | > 100 | 0.59 | – | 0.05 | 0.1 | 2.64 | – | 64 | 4 | – | – | – | – | – | – | – | –
3 | NC(=O)c1csc([C@@H]2O[C@H](CO)[C@H](O)[C@H]2O)n1 | 0.08 | – | > 100 | 0.53 | – | 0.13 | 0.15 | 3.11 | – | 48 | – | 7 | 0.1 | inactive | 0.416 | inactive | Active | inactive | –
4 | C[C@]1(c2nc(C(N)=O)cs2)O[C@H]2O[C@H](CO)[C@H](O)[C@H]2O1 | 0.64 | – | > 100 | 0.64 | – | 0.34 | 0.02 | 5.61 | – | – | – | – | – | – | – | – | – | – | 100
